Results on 1 molecule are retold here after patent publication US20170226139A1, “CRYSTALLINE SALTS OF (Z)-O-OCTADEC-9-EN-1-YL O,O-DIHYDROGEN PHOSPHOROTHIOATE” (priority 2013, published 2017).

A short description of one data set: physchem. To be noted: thermodynamic from solid.
Data set [1] is described as follows: Rx100 salt screening (solid formation, XRPD wet/dry, filterability, exposure to RH > 90%). How it is done:
We designed a complex and unconventional screening regime to screen for Rx100 crystalline salts. […] The screening regime is described as follows.
Rx100.FA in the form of a viscous liquid and eighteen counter ions were used as starting materials. These counter ions are listed and numbered in Table 4. The numbers will be used for grouping the resulting solids. The screening was performed in three stages.
Stage one (1) included screening 11 counter ions: sodium hydroxide, ammonium hydroxide, ethylenediamine, diethylamine, tromethamine (Tris), hydroxyethyl morpholine, benzathine, dimethylamino ethanol, L-Arginine, L-Lysine, L-Histidine. […] In stage 1, we performed three rounds of experiment.
In the first round of experiment, four (4) solvent systems, i.e., isopropyl alcohol (IPA), diethyl ether (DEE), IPA:water (a mixture at a volume ratio of 95:5) and tetrahydrofuran (THF), were used. Thus in this first round of screening, 44 individual base-acid reactions were conducted in 44 vials.
First, Rx100.FA and each of the bases were mixed in a vial. […] In each of the 44 vials, 211.1 μL of the prepared liquid, which was equivalent to about 35 mg of Rx100.FA, was first dispensed. Then, one equivalent (molar) of each of the 11 bases was dispensed in its corresponding vial. For example, the base sodium hydroxide was added to vials 1, 12, 23 and 34. Similarly, L-histidine was added to vials 11, 22, 33 and 44. Observations were recorded upon addition of the bases in to Rx100.FA.
Second, the solvent in each mixture was depleted. All vials containing the mixtures of Rx100.FA and each of the bases were left under moderate vacuum and nitrogen bleed at room temperature overnight to evaporate the solvent. The vials were then kept under full vacuum for about an hour to make sure the solvents (ethanol and water) are evaporated. Observations on formation of solid upon evaporation were recorded.
Third, solvents were added in each vial to induce solid formation. In each vial, a stir bar and one of the four selected solvents (each 5 volumes with respect to the Rx100.FA) were added. The vials were then capped. IPA was added to the first set of 11 vials (1-11), DEE added to the second set of 11 vials (12-22), IPA:water added to the third set of 11 vials (23-33), and THF added to the fourth set of 11 vials (34-44). The vials were left at room temperature while stirring for at least 5 hours. Observations were recorded.
The first set of XRPD analyses were recorded as “wet” samples. The solids were dried under vacuum for 1 hour and at room temperature followed by XRPD as “dry” sample. The dry solid was then exposed to relative humidity of more than 90% overnight followed by XRPD analysis. For XRPD naming, a number and a letter were used. The number refers to the counter ion and the letter refers to the chronological discovered XRPD pattern of that particular salt.
In the second round of experiment of stage one, another four (4) solvent systems, i.e., methanol (MeOH), tert-Butyl methyl ether (tBME), ethyl acetate and toluene, were used in the same 44 vials as used in the first round experiment. The solvents in all 44 vials from the first round were evaporated to dryness under vacuum and nitrogen bleed. The 4 new solvents were then added into the vials. Methanol was added to the first set of 11 vials (1-11), tBME added to the second set of 11 vials (12-22), Ethyl acetate added to the third set of 11 vials (23-33), and Toluene added to the fourth set of 11 vials (34-44). The same procedure as in the first round of experiment was followed for these new solvents and samples were taken for XRPD analysis.
In the third round of experiment, effect of base equivalence was assessed. […] After addition of the extra base, the previous solvent was evaporated and new solvents added.

The test system of another data set is Sprague-Dawley rats. Nature of the data set: Single-dose (and 7-day) subcutaneous toxicity in rats. The format is in vivo. The protocol:
In the second phase of the study, animals (n=3/sex/group) received 25 mg/kg/day for seven consecutive days with injections being rotated between two sites. Parameters evaluated included clinical signs, body weight, and gross pathology.

Consider `CCCCCCCC/C=C\CCCCCCCCOP(O)(O)=S` [Rx100.L-Lysine, (Z)—O-octadec-9-en-1-yl O,O-dihydrogen phosphorothioate], for which the solubility – broadly, the dissolved amount per volume that the medium holds – in the data set “physchem” (simulated formulation solvent, aqueous with cosolvent or surfactant or cyclodextrin) was greater than 43 mg/mL; in “physchem” (water) it was greater than 48 mg/mL. In addition, the “Stability at high humidity” value in data set [1] was “stable at high humidity”. Moreover, the Crystallinity result in data set [1] (Rx100 salt formed with the named base, XRPD, listed as Rx100.L-Lysine salt) is given as “showed crystallinity”. For the same molecule, the Filterability entry in data set [1] (Rx100 salt formed with the named base, listed as Rx100.L-Lysine salt) was “filterable”. The necropsy findings result with Sprague-Dawley rats (Phase I, rats given >50 mg/kg) was “scabs were observed on the skin overlying the injection site”; in the data set on Sprague-Dawley rats (Phase II, 25 mg/kg/day for seven days), “small organ size was noted for the epididymis, prostate, seminal vesicle, and testis of all three males”. The body weight entry is reported as “transient loss of body weight” in the data set on Sprague-Dawley rats (Phase I, single SC dose >50 mg/kg, first 3 days post-dose) and “transient body weight loss was followed by rebound” in the data set with Sprague-Dawley rats (Phase II, 25 mg/kg/day for seven consecutive days). The skin findings entry in the data set with Sprague-Dawley rats (Phase I, single SC doses of >10 mg/kg, beginning several days post-dose) is reported as “produced scabs”. In addition, the dosing site findings result in the data set with Sprague-Dawley rats (Phase II, 25 mg/kg/day for seven days, first two dosing sites) is listed as “scabs developed with delayed onset”.
